# Experimental data as given in patent US20230321187A1, “OCTOPUS-DERIVED PEPTIDE OCTOPROMYCIN HAVING ANTIBACTERIAL AND ANTI-BIOFILM ACTIVITY AGAINST ACINETOBACTER BAUMANNII” (priority 2020, published 2023).
# “Also recorded” adds a separate entry of the source. Where no end group is shown, it is not given here.
# What was measured:
# A. baumannii [1] = test: Histological analysis of A. baumannii-infected zebrafish (H&E); type: in vivo; conditions: 48 hpe, vs A. baumannii-infected group
# From the text: Two zebrafish were selected from each group at the 80% death stage (48 hpe) and the spleen, gills and kidneys were collected separately. Structural changes in A. baumannii-infected zebrafish treated with octopromycin were confirmed by histological analysis. Briefly, two fish from each group (control group, A. baumannii-infected group and octopromycin-treated group) were anesthetized with excess tricaine and the spleen, gills, and kidneys were surgically removed. Each tissue was immersed in PBS and fixed in 10% neutral buffered formalin. After a 12-hour washing step, tissues were dehydrated using a graded series of alcohols in a semi-closed benchtop tissue processor (Leica® TP1020, Germany). The dehydrated tissues were paraffin-embedded (Leica®EG1150 Tissue Embedding Center, Germany), sectioned at […] (Leica®RM2125 microtome, Germany), and stained with Hematoxylin and Eosin (H & E) (Sigma, Aldrich). The stained tissues of each group were imaged using a digital camera (LEICA®DCF450-C, Germany) connected to a microscope (LEICA®DM 3000 LED).
# A. baumannii [2] = test: A. baumannii-infected zebrafish model (viability, CFU, clinical signs); type: in vivo
# Method: The effect of octopromycin as an antibacterial agent was confirmed using zebrafish as an animal model.
# A total of 72 zebrafish (average weight: 0.35±0.05 g) were divided into 3 groups: (1) non-infected control group treated with PBS and water, (2) A. baumannii-infected group, and (3) A. baumannii-infected and octopromycin-treated group (octopromycin-treated group).
# Zebrafish was anesthetized using system water containing 160 μg/mL of tricaine (ethyl 3-aminobenzoate methane sulfonate). The control group ((1) group) was injected with 10 μL of nucleous free water (NFW) and 20 μL of PBS using a Hamilton® syringe. The A. baumannii-infected group ((2) group) was injected intraperitoneally with 10 μL of NFW, and the octopromycin-treated group ((3) group) was injected intraperitoneally with 10 μL of octopromycin (10 μg/fish). Then, A. baumannii was injected intraperitoneally (0 hpi) in the A. baumannii-infected group and the octopromycin-treated group at a dose of 20 μ1 (3.4×10^11 CFU) per fish, and then injected every 2 hpi until 48 hpi. To confirm the antibacterial effect of octopromycin, fish mortality was recorded every 12 hpi and the viability of each group was examined.
# In addition, the number of bacteria (CFU) in the kidneys and spleens of the control group and the infected zebrafish was observed. 3 fish from each group at the 80% mortality stage of the A. baumannii-infected group was selected, and then the spleen and the kidney were collected, and individual spleen and kidney tissues from each zebrafish were homogenized in PBS and the homogenates were serially diluted and loaded onto an agar plate (TSA) to measure A. baumannii CFU.
# A. baumannii [3] = test: Propidium iodide (PI) uptake / FDA staining membrane permeability assay (CLSM); type: cell-based, Acinetobacter baumannii
# Method: Propidium iodide (PI) uptake assay was performed to evaluate an effect of octopromycin on association with the membrane permeability and apoptosis of A. baumannii. The PI was a red fluorescent nuclear and chromosome counter dye that indicated changes in cell membrane permeability, and was used to detect the presence of dead cells and simultaneously observe live cells by observing green fluorescence (FDA). A. baumannii treated with octopromycin at MIC; 50 μg/mL and MBC; 200 μg/mL levels and control cell suspensions were centrifuged (5000 rpm for 2 minutes), washed with PBS and the pellets were suspended in PBS. Subsequently, the cells were cultured with 20 μg/mL of PI (Sigma Aldrich, USA) and 8 μg/mL of FDA (Sigma Aldrich, USA) at 25° C. for 30 minutes in the dark, and finally, the remaining dye was washed with PBS. Finally, a 5 μL drop of each suspension was placed on a cover slip and fluorescence images were observed using a CLSM integrated with a scan head on an Axiovert 200M inverted microscope (Carl Zeiss, Germany).
# A. baumannii [4] = test: Time-kill kinetics (OD 595 nm); type: cell-based, Acinetobacter baumannii
# Method: (§1) The MIC and MBC levels of octopromycin in A. baumannii were determined using media dilution tests and subcultures, respectively, according to the guidelines of the Clinical and Laboratory Standards Institute (CLSI, 2008 M27-A3). Several concentrations of octopromycin (0, 5, 10, 25, 50, 100, and 200 μg/mL) were tested as standard antibiotics (positive control) together with chloramphenicol (10 μg/mL, Sigma-Aldrich, USA) acting on A. baumannii growth and the MBC of chloramphenicol was confirmed according to the same procedure. The MIC was determined as the minimum concentration required to inhibit visual growth of A. baumannii. […] For analysis of time-kill kinetics, A. baumannii was cultured with octopromycin at various concentrations (0, 25, 50, 100, and 200 μg/mL) in the TSA medium at 25° C., and at different time intervals (0, 3, 6, 9, 12, 18, and 21 h), the absorbance was measured at 595 nm using a microplate reader (Bio-Rad, Saint Louis, USA) to confirm an inhibitory effect after culturing.
# [5] = MTT cytotoxicity assay in Raw 264.7 cells; type: cell-based; conditions: mouse, Raw 264.7 cells
# Method: (§2) To measure the cytotoxicity of octopromycin on HEK293T (American Type Culture Collection ATCC-11268) and Raw 264.7 cells, the cells were treated with octopromycin and cell viability was evaluated. The cells were harvested, counted and seeded at a density of […] per well in a 96-well plate and cultured for 24 hours at 37° C. and 5% CO2. The cells were treated with different concentrations of octopromycin (0 to 800 μg/mL) and cultured for 24 hours. After culturing, the culture medium was replaced with a fresh medium, and 10 μL of MTT (5 mg/mL) was added to each well and incubated in a CO2 incubator for 4 hours. The formed formazan crystals were dissolved in 50 μL of DMSO and absorbance was measured at 570 nm using a microplate reader (Bio-Rad Laboratories, Inc, USA). Cells treated with the medium (control) were considered as 100% viability (control group), and current viability was normalized and calculated for the untreated control group.
# Raw 264.7 cells = test: MTT cytotoxicity assay in Raw 264.7 cells; type: cell-based
# Method: as §2
# A. baumannii [6] = test: MIC and MBC by media dilution test and subculture (CLSI); type: cell-based, Acinetobacter baumannii
# Method: In Example 2, in order to confirm the antibacterial effect of octopromycin on A. baumannii bacteria having multi-drug resistance, a minimum inhibitory concentration (MIC) and a minimum bactericidal concentration (MBC) of octopromycin were confirmed.
# as §1
sequence,measurement,setting,value
RRLIRTDTGPIIYDYFKDQLLKKGMVILRESMKNLKGM [octopromycin],"histology of kidney, spleen and gills",A. baumannii [1],tissue disorders and pathological damage were reduced overall; also recorded: tissue disorders and pathological damage were reduced in all tissues
same,viability of infected zebrafish,"A. baumannii [2]; 10 μg/fish intraperitoneally, 48 hours after A. baumannii infection",37.5%
same,number of bacteria (CFU) in spleen and kidney,"A. baumannii [2]; 10 μg/fish, rank among the three groups",second highest
same,external clinical signs (hemorrhage),"A. baumannii [2]; 10 μg/fish, vs A. baumannii-infected group",less hemorrhage
same,membrane permeability (PI/FDA staining),A. baumannii [3]; MBC (200 μg/mL),almost all A. baumannii cells showed red fluorescence signals
same,membrane permeability (PI/FDA staining),A. baumannii [3]; MIC (50 μg/mL),more PI-stained red fluorescent cells
same,growth inhibition (time-kill kinetics),"A. baumannii [4]; 25 μg/mL, up to 12 hours",partial growth inhibition
same,growth inhibition (time-kill kinetics),"A. baumannii [4]; at a MIC concentration or less, 25° C., OD 595 nm",clear growth inhibition
same,"viability at 24 h, 400 µg/mL","[5]; Raw 264.7, 400 μg/mL, 24 hours, read-out: cell viability",80%
same,viability at 24 h,"[5]; Raw 264.7, concentration not stated, read-out: cells alive",≥ 85%
same,cell viability,"Raw 264.7 cells; Raw 264.7, >400 μg/mL",significantly reduced
same,toxic effect,"Raw 264.7 cells; Raw 264.7, MBC level (200 μg/mL)",no toxic effect
same,minimum bactericidal concentration (MBC),"A. baumannii [6]; subculture on TSA, 24 hours",200 µg/mL
same,minimum inhibitory concentration (MIC),A. baumannii [6]; visual growth,50 µg/mL
